Experimental data from US10004809B2, “Precise delivery of therapeutic agents to cell mitochondria for anti-cancer therapy” (UNIVERSITY OF GEORGIA RESEARCH FOUNDATION, INC., priority 2013, dated 2018).

Assays:
[1] = tested on: mouse bone marrow derived dendritic cells (BMDCs); assay: Cytokine secretion of BMDCs activated with supernatants of treated PC3 cells (ELISA); format: cell-based; details: for IL-12 secretion from BMDCs: BMDCs 24 h
From the text: Cancer cells recruit several pathways to evade elimination by the immune system (Kim et al., Immunology 121:1-14, 2007). Several mechanisms by which tumor cells escape immunity include upregulation of inhibitory molecules, production of immunosuppressive cytokines, and downregulation of costimulatory molecules (Rabinovich et al., Annu. Rev. Immunol. 25:267-296, 2007). Dendritic cells (DCs), the major players for the initiation of a specific anti-tumor T-cell response, are potential target to tumor-mediated immunosuppression. (Gabrilovich et al., Nat. Med. 2:1096-1103, 1996; Radmayr et al., Int. J. Cancer 63:627-632, 1995; Orsini et al., Cancer Res. 63:4497-4506, 2003.) Lactic acid secretion in highly proliferative glycolytic tumor has the ability to induce alteration in antigen phenotype and functional activity of DCs, which contributes to the suppression of local immunity (Gottfried et al. 2006). Tumor derived lactic acid inhibit the differentiation of monocytes to DCs, impair DC activation and antigen expression and suppress the proliferation, cytokine production and cytotoxic activity of T cells (Fischer et al., Blood 109:3812-3819, 2007). After observing significant and very selective reduction in lactate levels in PCa cells by MITO-DCA, the impact of the reduced lactate producing PC3 cell supernatants on DCs was investigated. Cancer cell supernatants were generated by treating PC3 cells with MITO-DCA (50 μM), Na-DCA (150 μM), and TPP-DCA (150 μM) for 24 h. First, investigated was the immune responses from the PC3 supernatants upon treatment with different DCA compounds by determining pro-inflammatory and anti-inflammatory cytokines interleukin (IL)-2, IL-4, IL-6, IL-10, IL-12, tumor necrosis factor (TNF)-α, and interferon-gamma (IFN-γ) using enzyme-linked immunosorbent assay (ELISA) (FIG. 6A) (Marrache et al., Integr. Biol. 5:215-223, 2013). […] The levels of all these three cytokines were higher for MITO-DCA treated cells compared to those, which were treated with TPP-DCA or Na-DCA. When DCs are activated appropriately, they take up tumor antigens and apoptotic bodies, migrate to the T-cell-rich area of the lymph nodes, initiate a series of actions for the selection of antigen-specific T cells, and the release of the DC cytokines such as IFN-γ and IL-12. The PC3 supernatants containing the tumor antigens were added to mouse bone marrow derived dendritic cells (BMDCs) and incubated at 37° C. (Marrache et al., 2013). […]
BMDCs were isolated from 6-8 weeks old C57BL/6 mice. […] The cells were counted, resuspended and transferred to petri dishes at the final concentration of 1.5×10^6 cells/mL. […] DC purity was tested by incubating BMDCs with LPS (100 ng/mL) and measured the surface expression of CD11c. […]

PC3 cells [2] = assay: Intracellular lactate determination; format: cell-based, Human; details: 6 h
From the text: Cytosolic metabolism of glucose to pyruvate occurs before its entry into mitochondria for oxidative phosphorylation. However, if not metabolized through oxidative phosphorylation as found in cancer, pyruvate gets converted by lactate dehydrogenase through glycolysis to lactate. Glycolysis in the absence of oxidative phosphorylation in cancer causes rise in lactate concentration. To test the ability of MITO-DCA to switch glucose metabolism from glycolysis to oxidative phosphorylation in cancer cells, intracellular lactate levels in glycolytic PC3 cells were measured and compared the value with those observed in less glycolytic LNCaP and normal MSC cells (FIG. 5A). To understand the importance of mitochondria targeting ligand and to explore the importance of a Tris platform to increase number of DCA molecule per targeting ligand, the parent drug Na-DCA and TPP-DCA were used as controls. Treatment of PC3 cells with 50 μM of MITO-DCA for 6 h reduced the intracellular lactate levels by 58±5%. […] Pronounced lactate concentration differences were observed between […] glycolytic PC3 and healthy MSC cells (FIG. 5A). […] None of the DCA compounds has any effect on the lactate levels in MSC cells (FIG. 5A).
PC3, LNCaP, and MSC cells were seeded at a density of 1×10^6 cells/mL on each well of a 12 well plate and allowed to grow overnight at 37° C. under 5% CO2. Cells were treated with 150 μM Na-DCA, 150 μM TPP-DCA, and 50 μM MITO-DCA for 6 h at 37° C. After 6 h, the media was removed and the cells were homogenized. The lysate was added to the enzyme and substrate working reagent mixture and incubated for 30 min. Lactate concentration was measured using Bio-Tek Synergy HT microplate reader at 450 nm and comparing to a standard curve.

PC3 cells [3] = assay: CELLTITER-GLO luminescent intracellular ATP quantification; format: cell-based, Human; details: for Increase in intracellular ATP levels: 3 h; for ATP level and cell growth at high concentration: PC3 cells, 6 h
Experimental: A decrease in cancer cell lactate levels is expected to be associated with an increase in ATP production. Intracellular ATP levels in PC3, LNCaP, and MSC cells treated with MITO-DCA (20 μM), TPP-DCA (60 μM), and Na-DCA (60 μM) were measured.
PC3 or MSC cells were plated at a density of 10,000 cells per well in 96-well plates compatible with the luminometer used in 100 μL media. […] Control wells containing medium without cells were prepared to obtain a value for background luminescence. Plates were then equilibrated at room temperature for ˜30 min. A volume of CELLTITER-GLO™ reagent equal to the volume of cell culture medium present in each well was added, this mixtures were well mixed for 2 min using a shaker to induce cell lysis. The plates were allowed to incubate at room temperature for 10 min to stabilize luminescent signal. Luminescent was recorded using a plate reader. ATP quantification was carried out from a standard curve using ATP disodium salt hydrate.

[4] = supernatant of PC3 cells treated with 50 μM for 24 h

Compound	IL-10 production from BMDCs [1, 4]	TNF-α secretion from BMDCs [1, 4]	IL-12 secretion from BMDCs [1, 4]	Reduction of intracellular lactate levels (PC3 cells [2]; 50 μM) [%]	Increase in intracellular ATP levels (PC3 cells [3]; 20 μM) [%]	ATP level and cell growth at high concentration (PC3 cells [3]; 50 μM)	IL-12 secretion from BMDCs ([1]; supernatant of PC3 cells treated with 150 μM for 24 h)	Reduction of intracellular lactate levels (PC3 cells [2]; 150 μM) [%]	Increase in intracellular ATP levels (PC3 cells [3]; 60 μM)	ATP level and cell growth at high concentration (PC3 cells [3]; 150 μM)
O=C(CCCCC[P+](c1ccccc1)(c1ccccc1)c1ccccc1)NC(COC(=O)C(Cl)Cl)(COC(=O)C(Cl)Cl)COC(=O)C(Cl)Cl.[Br-] [MITO-DCA]	reducing IL-10 production	highest level	significant increased secretion of IL-12	58±5	~44	ATP reduction and cell growth inhibition	–	–	–	–
O=C(OCCC[P+](c1ccccc1)(c1ccccc1)c1ccccc1)C(Cl)Cl.[Br-] [TPP-DCA]	–	–	–	–	–	–	lesser compared to MITO-DCA	30±2	did not show any significant increase	ATP reduction and cell growth inhibition
